Activity calls are given as the source filed them. The rule behind the calls is not given here.
How the values were obtained:
[1] = tested on: RAW264.7; assay: Anti-inflammatory activity in mouse RAW264.7 cells assessed as inhibition of LPS-stimulated NO production by Griess assay; format: functional, cell-based
[2] = tested on: RAW264.7; assay: Inhibition of NF-kB signaling in mouse RAW264.7 cells assessed as reduction in LPS-stimulated IL-6 mRNA level preincubated for 2 hrs followed by LPS stimulation measured after 4 hrs by qRT-PCR assay; format: cell-based
[3] = tested on: RAW264.7; assay: Cytotoxicity against LPS-stimulated mouse RAW264.7 cells assessed as reduction in cell viability at 3.3 to 90 uM after 24 hrs by MTT assay; format: cell-based; conditions: raw264.7, 24 h
[4] = molecular target: Transcription factor p65 (Mus musculus) (UniProt Q04207); assay: Inhibition of LPS-stimulated NF-kB p65 signaling pathway in mouse RAW264.7 cells assessed as reduction in p65 nuclear translocation at 3.3 to 30 uM preincubated for 2 hrs followed by LPS stimulation measured after 30 mins by Western blot method; format: cell-based
[5] = molecular target: Transcription factor p65 (Mus musculus) (UniProt Q04207); assay: Inhibition of NF-kB p65 phosphorylation in mouse RAW264.7 cells at 3.3 to 30 uM preincubated for 2 hrs followed by LPS stimulation measured after 30 mins by Western blot method; format: cell-based
[6] = tested on: RAW264.7; assay: Inhibition of NF-kB signaling in mouse RAW264.7 cells assessed as reduction in LPS-stimulated iNOS mRNA level preincubated for 2 hrs followed by LPS stimulation measured after 24 hrs by qRT-PCR method; format: cell-based
[7] = tested on: RAW264.7; assay: Anti-inflammatory activity in mouse RAW264.7 cells assessed as inhibition of LPS-stimulated NO production preincubated for 2 hrs followed by LPS stimulation measured after 18 hrs by Griess assay; format: functional, cell-based
[8] = tested on: RAW264.7; assay: Inhibition of NF-kB signaling in mouse RAW264.7 cells assessed as reduction in LPS-stimulated iNOS protein level at 3.3 to 30 uM preincubated for 2 hrs followed by LPS stimulation measured after 4 hrs by Western blot assay; format: cell-based
[9] = tested on: RAW264.7; assay: Inhibition of NF-kB signaling in mouse RAW264.7 cells assessed as reduction in LPS-stimulated TNFalpha mRNA level preincubated for 2 hrs followed by LPS stimulation measured after 4 hrs by qRT-PCR assay; format: cell-based
[10] = molecular target: Transcription factor p65 (Mus musculus) (UniProt Q04207); assay: Inhibition of LPS-stimulated NF-kB p65 signaling pathway in mouse RAW264.7 cells assessed as IkBalpha accumulation at 3.3 to 30 uM preincubated for 2 hrs followed by LPS stimulation measured after 30 mins by Western blot method; format: cell-based
[11] = molecular target: Transcription factor p65 (Mus musculus) (UniProt Q04207); assay: Inhibition of NF-kB p65 signaling pathway in mouse RAW264.7 cells assessed as reduction in LPS-stimulated IkBalpha phosphorylation at 3.3 to 30 uM preincubated for 2 hrs followed by LPS stimulation measured after 30 mins by Western blot method; format: cell-based
[12] = tested on: RAW264.7; assay: Inhibition of NF-kB signaling in mouse RAW264.7 cells assessed as reduction in LPS-stimulated IL-1beta mRNA level preincubated for 2 hrs followed by LPS stimulation measured after 4 hrs by qRT-PCR assay; format: cell-based

Sequence of Transcription factor p65 (Mus musculus) (Q04207 whole entry): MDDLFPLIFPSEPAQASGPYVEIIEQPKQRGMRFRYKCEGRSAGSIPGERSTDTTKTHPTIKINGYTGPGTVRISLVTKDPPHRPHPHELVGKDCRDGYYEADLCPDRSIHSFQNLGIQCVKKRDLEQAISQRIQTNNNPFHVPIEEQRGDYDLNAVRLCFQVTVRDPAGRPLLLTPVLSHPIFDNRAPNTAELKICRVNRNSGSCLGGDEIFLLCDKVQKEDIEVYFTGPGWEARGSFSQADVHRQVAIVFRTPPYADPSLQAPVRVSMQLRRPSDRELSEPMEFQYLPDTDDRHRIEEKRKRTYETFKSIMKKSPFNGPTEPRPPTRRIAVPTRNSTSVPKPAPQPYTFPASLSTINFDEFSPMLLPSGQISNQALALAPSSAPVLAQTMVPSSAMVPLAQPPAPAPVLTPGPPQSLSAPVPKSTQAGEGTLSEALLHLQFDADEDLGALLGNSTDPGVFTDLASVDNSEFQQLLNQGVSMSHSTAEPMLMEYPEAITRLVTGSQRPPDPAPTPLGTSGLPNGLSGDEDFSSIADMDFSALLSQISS

| SMILES | IC50 [1] | inhibition [2] | Activity [3] | inhibition [4] | inhibition [5] | inhibition [6] | inhibition [7] | inhibition [8] | inhibition [9] | inhibition [10] | inhibition [11] | inhibition [12] |
| --- | --- | --- | --- | --- | --- | --- | --- | --- | --- | --- | --- | --- |
| CCCc1c(C(C)=O)c(O)cc2c1C(=O)C[C@H](O)C2 | 51.2 µM | – | – | – | – | – | – | – | – | – | – | – |
| CC(=O)CC1(O)CC(=O)c2c(C)cc(O)cc2O1 (configuration not stated) | – | Dose-dependent effect | Non-Toxic | Active | Active | Dose-dependent effect | Dose-dependent effect | Active | Dose-dependent effect | Active | Active | Dose-dependent effect |
